Source: ChEMBL document CHEMBL5291721, “A preclinical secondary pharmacology resource illuminates target-adverse drug reaction associations of marketed drugs” (Nat Commun, 2023)

Legend:
Thromboxane A2 receptor [1] = biological target: T1, Thromboxane A2 receptor (Homo sapiens, UniProt P21731); assay type: functional, cell-based
T1 sequence (P21731 whole entry): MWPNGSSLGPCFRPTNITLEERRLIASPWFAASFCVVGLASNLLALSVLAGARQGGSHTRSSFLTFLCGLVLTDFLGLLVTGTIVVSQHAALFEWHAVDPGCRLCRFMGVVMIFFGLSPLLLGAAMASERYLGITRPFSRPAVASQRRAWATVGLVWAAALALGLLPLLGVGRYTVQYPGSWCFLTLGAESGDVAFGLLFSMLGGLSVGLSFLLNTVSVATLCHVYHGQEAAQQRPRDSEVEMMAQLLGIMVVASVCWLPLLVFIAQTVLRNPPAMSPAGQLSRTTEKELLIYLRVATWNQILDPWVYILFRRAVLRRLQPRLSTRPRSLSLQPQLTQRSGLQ

[2] = biological target: T2, Muscarinic acetylcholine receptor M2 (Homo sapiens, UniProt P08172)
T2 sequence (P08172 whole entry): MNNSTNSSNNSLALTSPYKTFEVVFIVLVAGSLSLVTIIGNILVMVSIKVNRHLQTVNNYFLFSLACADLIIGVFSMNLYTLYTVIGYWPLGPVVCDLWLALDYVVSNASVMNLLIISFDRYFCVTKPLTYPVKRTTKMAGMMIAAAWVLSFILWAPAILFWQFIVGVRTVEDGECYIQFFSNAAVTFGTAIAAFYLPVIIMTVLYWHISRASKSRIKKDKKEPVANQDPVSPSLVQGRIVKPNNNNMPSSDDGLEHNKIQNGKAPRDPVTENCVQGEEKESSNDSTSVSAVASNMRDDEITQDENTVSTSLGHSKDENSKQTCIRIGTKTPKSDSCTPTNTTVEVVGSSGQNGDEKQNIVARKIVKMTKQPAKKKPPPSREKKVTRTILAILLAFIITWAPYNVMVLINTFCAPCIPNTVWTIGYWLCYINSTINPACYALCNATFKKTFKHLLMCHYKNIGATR

[3] = biological target: 5-hydroxytryptamine receptor 2B (Homo sapiens, UniProt P41595); assay type: functional, cell-based
[4] = biological target: Sodium-dependent dopamine transporter (Homo sapiens, UniProt Q01959)
Histamine H3 receptor = Histamine H3 receptor (Homo sapiens, UniProt Q9Y5N1)
Thromboxane A2 receptor [5] = biological target: T1, Thromboxane A2 receptor; assay type: functional, cell-based; remark: listed apart in the source
Acetylcholinesterase = Acetylcholinesterase (Homo sapiens, UniProt P22303); assay type: functional
[6] = biological target: 3',5'-cyclic-AMP phosphodiesterase 4A (Homo sapiens, UniProt P27815); assay type: functional
[7] = biological target: Voltage-gated inwardly rectifying potassium channel KCNH2 (Homo sapiens, UniProt Q12809); assay type: functional
[8] = biological target: cGMP-inhibited 3',5'-cyclic phosphodiesterase 3A (Homo sapiens, UniProt Q14432); assay type: functional
[9] = biological target: T3, 5-hydroxytryptamine receptor 1A (Homo sapiens, UniProt P08908)
T3 sequence (P08908 whole entry): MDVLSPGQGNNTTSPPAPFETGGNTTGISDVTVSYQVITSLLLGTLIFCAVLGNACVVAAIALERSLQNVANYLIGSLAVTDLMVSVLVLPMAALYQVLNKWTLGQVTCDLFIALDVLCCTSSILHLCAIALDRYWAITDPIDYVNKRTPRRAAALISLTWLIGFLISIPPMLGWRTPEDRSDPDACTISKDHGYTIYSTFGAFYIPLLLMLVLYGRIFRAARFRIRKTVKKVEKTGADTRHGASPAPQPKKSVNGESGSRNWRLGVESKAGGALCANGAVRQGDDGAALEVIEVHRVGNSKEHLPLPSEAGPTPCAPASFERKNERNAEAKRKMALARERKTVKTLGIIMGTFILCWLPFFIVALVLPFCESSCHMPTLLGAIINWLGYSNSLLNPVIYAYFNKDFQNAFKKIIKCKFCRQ

Prothrombin = Prothrombin (Homo sapiens, UniProt P00734); assay type: functional
[10] = biological target: T4, Amine oxidase [flavin-containing] A (Homo sapiens, UniProt P21397); assay type: functional
T4 sequence (P21397 whole entry): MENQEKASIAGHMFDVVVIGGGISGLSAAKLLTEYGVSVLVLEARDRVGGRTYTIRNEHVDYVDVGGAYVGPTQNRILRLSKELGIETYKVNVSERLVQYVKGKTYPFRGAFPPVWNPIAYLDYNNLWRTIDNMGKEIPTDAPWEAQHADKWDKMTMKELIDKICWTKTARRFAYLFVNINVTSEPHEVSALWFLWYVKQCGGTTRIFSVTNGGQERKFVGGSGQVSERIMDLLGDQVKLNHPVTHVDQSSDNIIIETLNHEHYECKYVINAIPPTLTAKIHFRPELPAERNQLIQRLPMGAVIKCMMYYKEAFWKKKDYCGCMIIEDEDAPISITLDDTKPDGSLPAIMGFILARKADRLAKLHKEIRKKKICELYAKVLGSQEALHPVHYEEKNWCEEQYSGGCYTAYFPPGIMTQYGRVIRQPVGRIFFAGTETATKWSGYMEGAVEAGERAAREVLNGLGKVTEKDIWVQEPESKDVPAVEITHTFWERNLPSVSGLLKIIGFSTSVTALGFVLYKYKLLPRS

[11] = biological target: T5, Alpha-2A adrenergic receptor (Homo sapiens, UniProt P08913)
T5 sequence (P08913 whole entry): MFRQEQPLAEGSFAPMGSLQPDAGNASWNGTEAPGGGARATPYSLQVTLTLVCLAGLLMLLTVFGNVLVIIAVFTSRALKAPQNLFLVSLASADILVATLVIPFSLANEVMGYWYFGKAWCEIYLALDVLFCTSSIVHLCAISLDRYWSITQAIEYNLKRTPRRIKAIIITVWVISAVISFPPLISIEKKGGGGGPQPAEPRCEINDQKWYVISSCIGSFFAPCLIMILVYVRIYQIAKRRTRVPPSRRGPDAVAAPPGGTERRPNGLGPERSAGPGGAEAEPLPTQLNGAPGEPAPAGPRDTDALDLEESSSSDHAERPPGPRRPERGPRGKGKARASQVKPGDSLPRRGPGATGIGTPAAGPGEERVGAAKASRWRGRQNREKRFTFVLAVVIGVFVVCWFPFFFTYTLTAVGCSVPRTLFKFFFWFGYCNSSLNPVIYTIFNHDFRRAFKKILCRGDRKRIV
Note: assay procedure not described here.

Sequence of Acetylcholinesterase (P22303 whole entry): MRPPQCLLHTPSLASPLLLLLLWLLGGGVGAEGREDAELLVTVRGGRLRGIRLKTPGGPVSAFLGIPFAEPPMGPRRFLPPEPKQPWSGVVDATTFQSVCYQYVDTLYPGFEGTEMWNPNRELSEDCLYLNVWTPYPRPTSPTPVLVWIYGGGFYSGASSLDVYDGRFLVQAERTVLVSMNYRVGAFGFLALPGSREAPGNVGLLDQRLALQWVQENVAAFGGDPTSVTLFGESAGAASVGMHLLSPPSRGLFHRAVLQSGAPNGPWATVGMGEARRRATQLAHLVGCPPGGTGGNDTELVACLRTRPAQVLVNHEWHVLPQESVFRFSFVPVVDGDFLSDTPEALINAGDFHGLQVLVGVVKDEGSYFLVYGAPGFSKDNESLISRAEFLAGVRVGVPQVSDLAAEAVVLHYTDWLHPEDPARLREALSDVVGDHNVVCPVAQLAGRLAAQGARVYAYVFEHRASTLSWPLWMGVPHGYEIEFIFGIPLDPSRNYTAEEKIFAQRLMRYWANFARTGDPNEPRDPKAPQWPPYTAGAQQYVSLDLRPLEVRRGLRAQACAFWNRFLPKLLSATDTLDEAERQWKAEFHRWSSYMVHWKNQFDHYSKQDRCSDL
Sequence of Sodium-dependent dopamine transporter (Q01959 whole entry): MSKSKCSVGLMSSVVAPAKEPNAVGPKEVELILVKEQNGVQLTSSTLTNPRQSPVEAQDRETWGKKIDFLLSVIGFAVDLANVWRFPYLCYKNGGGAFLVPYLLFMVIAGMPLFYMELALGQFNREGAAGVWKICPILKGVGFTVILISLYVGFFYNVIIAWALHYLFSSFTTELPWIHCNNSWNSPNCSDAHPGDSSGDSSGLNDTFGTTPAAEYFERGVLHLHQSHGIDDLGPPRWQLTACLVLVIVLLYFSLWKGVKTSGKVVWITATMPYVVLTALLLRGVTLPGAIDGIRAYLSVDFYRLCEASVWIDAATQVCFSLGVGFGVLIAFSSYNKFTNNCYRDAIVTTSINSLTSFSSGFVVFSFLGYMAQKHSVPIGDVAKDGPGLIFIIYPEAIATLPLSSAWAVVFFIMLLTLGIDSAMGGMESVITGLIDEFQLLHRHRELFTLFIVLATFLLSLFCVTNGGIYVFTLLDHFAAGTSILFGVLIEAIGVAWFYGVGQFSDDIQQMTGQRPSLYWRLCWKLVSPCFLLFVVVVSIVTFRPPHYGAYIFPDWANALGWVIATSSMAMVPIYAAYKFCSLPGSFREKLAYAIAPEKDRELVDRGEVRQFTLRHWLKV
Sequence of 3',5'-cyclic-AMP phosphodiesterase 4A (P27815 whole entry): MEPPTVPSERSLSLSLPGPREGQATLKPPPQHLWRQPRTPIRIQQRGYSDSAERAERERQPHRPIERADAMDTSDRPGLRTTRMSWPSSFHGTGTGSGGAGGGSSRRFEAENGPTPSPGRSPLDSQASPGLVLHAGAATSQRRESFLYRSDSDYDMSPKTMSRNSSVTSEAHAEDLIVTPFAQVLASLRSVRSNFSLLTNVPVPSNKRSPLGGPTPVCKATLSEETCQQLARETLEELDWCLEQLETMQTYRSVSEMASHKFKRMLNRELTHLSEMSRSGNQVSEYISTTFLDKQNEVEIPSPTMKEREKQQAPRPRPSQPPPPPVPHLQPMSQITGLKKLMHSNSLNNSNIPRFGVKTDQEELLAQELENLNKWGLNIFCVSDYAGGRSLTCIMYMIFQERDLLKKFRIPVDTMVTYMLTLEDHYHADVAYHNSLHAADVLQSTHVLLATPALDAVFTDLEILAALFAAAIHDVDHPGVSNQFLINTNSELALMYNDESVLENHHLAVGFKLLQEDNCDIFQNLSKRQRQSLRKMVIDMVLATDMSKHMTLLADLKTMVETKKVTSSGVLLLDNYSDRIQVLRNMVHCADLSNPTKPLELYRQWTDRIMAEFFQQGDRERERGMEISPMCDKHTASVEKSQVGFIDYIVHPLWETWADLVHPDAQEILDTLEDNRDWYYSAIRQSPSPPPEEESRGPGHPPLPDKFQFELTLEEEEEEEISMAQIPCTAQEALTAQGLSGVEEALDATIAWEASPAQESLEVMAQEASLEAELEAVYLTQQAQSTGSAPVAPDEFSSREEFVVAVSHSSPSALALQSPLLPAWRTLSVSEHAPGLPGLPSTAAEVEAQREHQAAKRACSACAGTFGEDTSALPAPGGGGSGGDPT
Sequence of Histamine H3 receptor (Q9Y5N1 whole entry): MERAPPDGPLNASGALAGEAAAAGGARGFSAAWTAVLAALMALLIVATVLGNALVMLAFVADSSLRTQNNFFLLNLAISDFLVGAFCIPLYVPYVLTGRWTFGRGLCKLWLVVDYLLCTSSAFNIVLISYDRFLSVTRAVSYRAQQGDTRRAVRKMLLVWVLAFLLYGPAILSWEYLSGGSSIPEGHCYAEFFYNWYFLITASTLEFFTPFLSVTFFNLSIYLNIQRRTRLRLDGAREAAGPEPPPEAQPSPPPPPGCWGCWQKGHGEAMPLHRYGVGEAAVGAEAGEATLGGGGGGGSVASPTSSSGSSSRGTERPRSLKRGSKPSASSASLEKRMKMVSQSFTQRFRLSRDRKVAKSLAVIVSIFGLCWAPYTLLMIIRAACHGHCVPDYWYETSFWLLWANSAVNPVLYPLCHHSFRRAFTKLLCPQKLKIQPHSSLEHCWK
Sequence of Voltage-gated inwardly rectifying potassium channel KCNH2 (Q12809 whole entry): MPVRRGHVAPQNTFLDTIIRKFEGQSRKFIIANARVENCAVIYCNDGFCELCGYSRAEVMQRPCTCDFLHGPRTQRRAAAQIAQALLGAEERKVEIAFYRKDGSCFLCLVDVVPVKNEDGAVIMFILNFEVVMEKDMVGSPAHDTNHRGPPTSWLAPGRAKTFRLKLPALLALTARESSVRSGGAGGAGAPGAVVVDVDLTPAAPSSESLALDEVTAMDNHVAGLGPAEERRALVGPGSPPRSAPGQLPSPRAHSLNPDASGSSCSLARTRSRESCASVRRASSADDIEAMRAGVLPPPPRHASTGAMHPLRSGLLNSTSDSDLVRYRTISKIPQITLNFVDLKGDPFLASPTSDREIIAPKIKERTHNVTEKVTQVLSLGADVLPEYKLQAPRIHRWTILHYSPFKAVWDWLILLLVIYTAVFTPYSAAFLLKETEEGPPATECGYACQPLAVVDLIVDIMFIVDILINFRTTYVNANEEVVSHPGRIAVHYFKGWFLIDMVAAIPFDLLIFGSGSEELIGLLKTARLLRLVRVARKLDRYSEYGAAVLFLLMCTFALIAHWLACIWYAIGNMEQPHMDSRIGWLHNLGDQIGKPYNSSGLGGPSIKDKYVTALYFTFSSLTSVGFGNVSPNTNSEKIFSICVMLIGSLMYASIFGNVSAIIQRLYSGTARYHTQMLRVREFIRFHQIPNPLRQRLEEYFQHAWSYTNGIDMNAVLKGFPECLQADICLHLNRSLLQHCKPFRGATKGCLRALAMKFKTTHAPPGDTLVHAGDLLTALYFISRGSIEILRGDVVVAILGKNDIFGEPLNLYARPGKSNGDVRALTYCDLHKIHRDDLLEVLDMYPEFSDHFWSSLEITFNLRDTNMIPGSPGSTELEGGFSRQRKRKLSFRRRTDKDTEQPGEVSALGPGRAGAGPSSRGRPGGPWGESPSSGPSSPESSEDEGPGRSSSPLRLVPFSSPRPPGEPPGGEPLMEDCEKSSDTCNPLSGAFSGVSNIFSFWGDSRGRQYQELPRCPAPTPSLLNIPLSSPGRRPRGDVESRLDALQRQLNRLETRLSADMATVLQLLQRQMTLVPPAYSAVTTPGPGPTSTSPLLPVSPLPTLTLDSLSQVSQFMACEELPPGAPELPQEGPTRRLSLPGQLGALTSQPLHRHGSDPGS
Sequence of 5-hydroxytryptamine receptor 2B (P41595 whole entry): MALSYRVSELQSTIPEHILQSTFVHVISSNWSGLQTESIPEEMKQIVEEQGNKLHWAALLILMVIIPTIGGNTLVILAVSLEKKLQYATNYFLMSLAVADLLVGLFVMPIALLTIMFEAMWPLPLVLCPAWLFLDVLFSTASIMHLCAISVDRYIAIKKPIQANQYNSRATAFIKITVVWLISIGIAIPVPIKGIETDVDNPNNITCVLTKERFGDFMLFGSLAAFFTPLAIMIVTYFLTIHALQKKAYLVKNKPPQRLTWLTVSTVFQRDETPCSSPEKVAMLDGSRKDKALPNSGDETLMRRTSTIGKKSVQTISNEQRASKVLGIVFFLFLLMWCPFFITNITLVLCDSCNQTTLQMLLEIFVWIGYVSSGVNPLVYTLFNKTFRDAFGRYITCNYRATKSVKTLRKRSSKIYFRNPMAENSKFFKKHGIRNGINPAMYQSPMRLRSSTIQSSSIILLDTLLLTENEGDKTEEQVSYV

| Compound | AC50 (Thromboxane A2 receptor [1]) [µM] | AC50 [2] [µM] | AC50 [3] [µM] | AC50 [4] [µM] | AC50 (Histamine H3 receptor) [µM] | AC50 (Thromboxane A2 receptor [5]) [µM] | AC50 (Acetylcholinesterase) [µM] | AC50 [6] [µM] | AC50 [7] [µM] | AC50 [8] [µM] | AC50 [9] [µM] | AC50 (Prothrombin) [µM] | AC50 [10] [µM] | AC50 [11] [µM] |
| --- | --- | --- | --- | --- | --- | --- | --- | --- | --- | --- | --- | --- | --- | --- |
| COC(=O)[C@H]1[C@H]2C[C@@H]3c4[nH]c5cc(OC)ccc5c4CCN3C[C@H]2C[C@@H](OC(=O)c2cc(OC)c(OC)c(OC)c2)[C@@H]1OC [RESERPINE] | > 30 | > 30 | > 30 | 29.3 | > 30 | > 30 | > 30 | > 3 | 1.46 | > 3 | > 30 | > 30 | > 30 | > 30 |
| Clc1ccc(C(Cn2ccnc2)OCc2csc3c(Cl)cccc23)c(Cl)c1 (stereo not drawn) [SERTACONAZOLE] | > 30 | 6.26 | > 30 | 1.88 | 23.3 | 14.5 | > 30 | 17.7 | 1.7 | > 30 | 12.4 | > 30 | > 30 | 3.8 |
| CC(OCCN1CCCCCC1)(c1ccccc1)c1ccc(Cl)cc1 (stereo not drawn) [SETASTINE] | > 30 | 0.393 | > 30 | 2.98 | 23.2 | 8.8 | 9.61 | > 30 | 0.14 | > 30 | 9.59 | > 30 | > 30 | 7.86 |
| O=S1(=O)CCN(CN2CCS(=O)(=O)NC2)CN1 [TAUROLIDINE] | > 30 | > 30 | > 30 | > 30 | > 30 | > 30 | > 30 | > 30 | > 30 | > 30 | > 30 | > 30 | > 30 | > 30 |
| CCCSc1nc(N[C@@H]2C[C@H]2c2ccc(F)c(F)c2)c2nnn([C@@H]3C[C@H](OCCO)[C@@H](O)[C@H]3O)c2n1 [TICAGRELOR] | > 30 | > 30 | > 30 | 0.425 | > 30 | 6.38 | > 30 | 21.3 | 27 | 17 | > 30 | > 30 | > 30 | > 30 |
| c1ccc2c(SC3=NCCN3)c[nH]c2c1 [TINAZOLINE] | > 30 | > 30 | > 30 | > 30 | > 30 | > 30 | > 30 | > 30 | > 30 | > 30 | 0.19 | > 30 | 15.9 | 0.0098 |
| Cc1ccc(C(=O)C(C)CN2CCCCC2)cc1 (stereo not drawn) [TOLPERISONE] | > 30 | 3.7 | > 30 | > 30 | 4.74 | > 30 | > 30 | > 30 | > 30 | > 30 | > 30 | > 30 | > 30 | > 30 |
